We go through one molecule from article PMC13371181, “A paracrine-to-autocrine shunt of GREM1 fuels colorectal cancer metastasis via ACVR1C” (Molecular Cancer, 2026).

“Also recorded” adds a separate entry of the source.

Holding throughout (type): cell-based, human
One assay concerns HCT116 cells. Description: Scratch assay, HCT116. Particulars: HCT116, scratch assay 24 h; n = 3 independent experiments. Here is the method: (§1) To investigate the effect of secreted GREM1 on CRC cells, an in vitro GREM1 secretion system was established using HEK293 cells. Stably GREM1-expressing cells (pcDNA3.1-GREM1) and empty-vector transfected cells (pcDNA3.1) were cultured in DMEM/F12 medium with 10% FBS until 40% confluence. After complete removal of the normal culture medium, HEK293-GREM1 and HEK293-Vec cells were continuously cultured in DMEM/F12 medium without FBS for 5 days before medium collection. GREM1 or Vector conditioned medium (GREM1-CM/Vec-CM) was then centrifuged at 1000 rpm for 30 min and the supernatant was collected for further study.
Cells were seeded into 6-well plates after centrifugation and digestion with 0.05% trypsin. When the cell density reached 90%, three vertical lines were scratched in each well with a 10 µL pipette tip and the floating cells were gently washed away with 1×PBS. Complete medium was added, and images of the scratch area were taken at 0 h. Three different fields of view were selected for each well. After photography, the medium was replaced with serum-free medium. Wound healing was documented at the same location after 24–48 h of incubation.

The next assay concerns HCT116 and SW480 cells. Description: Transwell invasion assay. The conditions noted are these: HCT116 and SW480, Matrigel transwell, 48 h; n = 3 independent experiments. On the procedure: as §1
Cells (1 × 10^5) were seeded in serum-free medium in the Matrigel-coated (Corning, 354480) transwell chambers (24-well insert, 8-µm pore size; BD Biosciences) for invasion experiments. The lower chamber was filled with RPMI1640 or DMEM containing 20% FBS. The migration of HCT116 and SW480 cells was measured in three random visual fields and quantified by microscopy after 48 h of incubation, followed by staining with DAPI or crystal violet. The invasive capacity of the cells was assessed using ImageJ software for quantification.

In the next assay the test system is GREM1 promoter. Put plainly: ChIP–qPCR, SMAD2/3/4 binding to GREM1 promoter. The conditions noted are these: SW480 cells, SB505124 10 µM, 24 h, n = 3 independent experiments. Here is the method: SW480 cells were starved in DMEM with 1% FCS overnight before treatment with vehicle, 10 µM SB505124 for 24 h. Cells were fixed in 1% paraformaldehyde for 10 min at RT for DNA-protein cross-linking, followed by quenching with glycine. Cross-linking chromatin was prepared using the SimpleChIP® Enzymatic Chromatin IP Kit (CST, 9002) according to the manufacturer’s instructions. For immunoprecipitation, 10 µg chromatin was incubated with 10 µL anti-histone H3 rabbit IgG (CST, 14269, positive control), 2 µL normal Rabbit IgG (CST, 2729) or 5 µL anti-SMAD2/3 rabbit IgG (CST, 8685) at 4 °C overnight. 2% chromatin prior to immunoprecipitation was used as input. Chromatin-protein-antibody complex was captured by protein G magnetic beads, and chromatin was released by reversal of cross-links and purified using the SimpleChIP® Enzymatic Chromatin IP Kit (CST, 9002) according to the manufacturer’s instructions. DNA was quantified by qPCR with primers targeting predicted SMAD2/3/4 binding regions on GREM1 or SNAI1 promoters. DNA levels were normalized to the input, and the fold-change of enrichment was calculated over the control. ChIP–qPCR primers are listed in Supplementary Table 2.
A general note: Real-time PCR tracks product formation cycle by cycle.

In the case of `Cc1cccc(-c2[nH]c(C(C)(C)C)nc2-c2ccc3c(c2)OCO3)n1` [SB505124], the “GREM1-CM-induced migration, effect of inhibitor” value with HCT116 cells was “abolished; also recorded: suppressed”. In the assay on HCT116 and SW480 cells, the “GREM1-CM-induced invasion, effect of inhibitor” value was “abolished; also recorded: significantly reduced”. Further, the “SMAD2/3/4 binding to GREM1 promoter −733 and −612 sites” value in the assay on GREM1 promoter is reported as “significantly reduced this binding”.
